The results in this text go back to ChEMBL document CHEMBL1152083, “Structure-activity studies of nonmacrocyclic rapamycin derivatives” (Bioorg Med Chem Lett, 1993).

pIC50, pKi: −log10 of the molar value. Active and inactive are the calls of the source. The calls are words filed in the database; no cut-off is given here.

The nature of test [1]: Binding affinity for FK506 binding protein. The conditions noted are these: read-out: Ki app.
Test [2] is filed under the species Mus musculus. Briefly: In vitro immunosuppressive activity by splenocyte mitogenesis assay in spleen cells from BDF1 female mice at 1 pM to 10 uM concentration; not active. It counts as functional, cell-based.
A short description of test [3]: Binding affinity for FK506 binding protein; value ranges from 2-6 nM. The conditions noted are these: read-out: Ki app.
The species entered for test [4] is Mus musculus. Description: In vitro immunosuppressive activity by splenocyte mitogenesis assay in spleen cells from BDF1 female mice at 1 pM to 10 uM concentration. It counts as functional, cell-based.

In general, pKi refers to −log10 of the Ki, conventionally taken in molar units. Consider `COCC(=O)[C@H](C)C[C@H](C)\C=C/C=C/C=C(\C)[C@H](C[C@@H]1CC[C@@H](C)[C@](O)(C(=O)C(=O)N2CCCC[C@H]2C(=O)O)O1)OC`, for which the negative-log Ki (pKi) in test [1] is 6.30. For the same molecule, the result in test [2] was inactive.

For `COCC(=O)[C@H](C)C[C@H](C)\C=C/C=C/C=C(\C)[C@H](C[C@@H]1CC[C@@H](C)[C@](O)(C(=O)C(=O)N2CCCC[C@H]2C(=O)OC)O1)OC`, the negative logarithm of the Ki (pKi) in test [1] is 7.92. The result in test [2] was inactive.

For the molecule `COC(=O)[C@@H]1CCCCN1C(=O)C(=O)[C@]1(O)O[C@H](C[C@H](OC)/C(C)=C/C=C/C=C\[C@@H](C)C[C@@H](C)C(=O)[C@H](OC)[C@H](O)/C(C)=C/[C@@H](C)C(=O)/C=C/[C@H](C)C[C@@H]2CC[C@@H](O)[C@H](OC)C2)CC[C@H]1C`, the pKi in test [1] is 7.54. Besides, the result in test [2] was inactive.

Turning to `COCC(=O)[C@H](C)C[C@H](C)\C=C/C=C/C=C(\C)[C@H](C[C@@H]1CC[C@@H](C)[C@](O)(C(=O)C(=O)N2CCCC[C@H]2C(=O)OC(C)C)O1)OC`, in test [1], the pKi was 7.29. Further, the result in test [2] was inactive.

For `COCC(=O)[C@H](C)C[C@H](C)\C=C/C=C/C=C(\C)[C@H](C[C@@H]1CC[C@@H](C)[C@](O)(C(=O)C(=O)N2CCCC[C@H]2C(=O)OCCCc2ccc(OC)c(OC)c2)O1)OC`, the pKi in test [1] was 7.37. Further, the outcome in test [2] was inactive.

Take `CCC(C)(C)C(=O)C(=O)N1CCCC[C@H]1C(=O)O[C@@H](CC(=O)[C@H](C)/C=C(\C)[C@@H](O)[C@@H](OC)C(=O)[C@H](C)C[C@H](C)\C=C/C=C/C=C(\C)[C@H](C[C@@H]1CC[C@@H](C)C(=O)O1)OC)[C@H](C)C[C@@H]1CC[C@@H](O)[C@H](OC)C1`: in test [1], the pKi was 7.70. Also, the outcome in test [2] was inactive.

For `COCC(=O)[C@H](C)C[C@H](C)\C=C/C=C/C=C(\C)[C@H](C[C@@H]1CC[C@@H](C)[C@](O)(C(=O)C(=O)N2CCCC[C@H]2C(=O)O[C@@H](CC(=O)[C@H](C)/C=C(\C)C=O)[C@H](C)C[C@@H]2CC[C@@H](O)[C@H](OC)C2)O1)OC`, in test [1], the pKi is 8.40. For the same molecule, the result in test [2] was inactive.

As to `COCC(=O)[C@H](C)C[C@H](C)\C=C/C=C/C=C(\C)[C@H](C[C@@H]1CC[C@@H](C)[C@](O)(C(=O)C(=O)N2CCCC[C@H]2C(=O)NCCCc2ccccc2)O1)OC`, in test [1], the negative logarithm of the Ki (pKi) was 7.49. Besides, in test [2], the result was inactive.

In the case of `CO[C@@H](C[C@@H]1CC[C@@H](C)[C@](O)(C(=O)C(=O)N2CCCC[C@H]2C(=O)OCc2ccccc2)O1)/C(C)=C/C=C/C=C\[C@@H](C)C[C@@H](C)C(=O)[C@H](OC)[C@H](O)/C(C)=C/[C@@H](C)C(=O)/C=C/[C@H](C)C[C@@H]1CC[C@@H](O)[C@H](OC)C1`, in test [3], the pKi was 8.70. Also, the outcome in test [2] was inactive.

For `COCC(=O)[C@H](C)C[C@H](C)\C=C/C=C/C=C(\C)[C@H](C[C@@H]1CC[C@@H](C)[C@](O)(C(=O)C(=O)N2CCCC[C@H]2C(=O)OC/C=C/c2ccccc2)O1)OC`, in test [1], the pKi is 7.51. The outcome in test [2] was inactive.

Take `COCC(=O)[C@H](C)C[C@H](C)\C=C/C=C/C=C(\C)[C@H](C[C@@H]1CC[C@@H](C)[C@](O)(C(=O)C(=O)N2CCCC[C@H]2C(=O)OC(C)c2ccccc2)O1)OC` (stereo partly drawn): the pKi in test [1] was 7.39. Also, in test [2], the result was inactive.

On to `COCC(=O)[C@H](C)C[C@H](C)\C=C/C=C/C=C(\C)[C@H](C[C@@H]1CC[C@@H](C)[C@](O)(C(=O)C(=O)N2CCCC[C@H]2C(=O)NCc2ccccc2)O1)OC`, for which the pKi in test [1] was 6.96. Further, the outcome in test [2] was inactive.

Regarding `COCC(=O)[C@H](C)C[C@H](C)\C=C/C=C/C=C(\C)[C@H](C[C@@H]1CC[C@@H](C)[C@](O)(C(=O)C(=O)N2CCCC[C@H]2C(=O)OCc2ccccc2)O1)OC`, the pKi in test [1] was 7.82. Also, the result in test [2] was inactive.

The term pIC50 denotes the negative decadic logarithm of the IC50, by convention in mol/L. On to `CO[C@H]1C[C@@H]2CC[C@@H](C)[C@@](O)(O2)C(=O)C(=O)N2CCCC[C@H]2C(=O)O[C@H]([C@H](C)C[C@@H]2CC[C@@H](O)[C@H](OC)C2)CC(=O)[C@H](C)/C=C(\C)[C@@H](O)[C@@H](OC)C(=O)[C@H](C)C[C@H](C)/C=C/C=C/C=C/1C` [SIROLIMUS], for which, in test [1], the pKi was 9.30. Also, the negative-log IC50 (pIC50) in test [4] is 9.00.
